Results taken from US20070049593A1 (priority 2004, published 2007).
pIC50: −log10 of the molar value. Counter-ions that a name gives are not always drawn.

Each compound was assayed against T1, HCV polymerase (Hepatitis C virus genotype 1b, UniProt P26663) (assay: biochemical).
T1 construct: a region encoding NS5B (J Virol 1991 March, 65(3), 1105-13, 544 amino acids after deletion of 47 amino acids on the C-terminal); 6xHis (C); made in house; host or cells: Escherichia coli
T1 sequence (P26663 2420-2963): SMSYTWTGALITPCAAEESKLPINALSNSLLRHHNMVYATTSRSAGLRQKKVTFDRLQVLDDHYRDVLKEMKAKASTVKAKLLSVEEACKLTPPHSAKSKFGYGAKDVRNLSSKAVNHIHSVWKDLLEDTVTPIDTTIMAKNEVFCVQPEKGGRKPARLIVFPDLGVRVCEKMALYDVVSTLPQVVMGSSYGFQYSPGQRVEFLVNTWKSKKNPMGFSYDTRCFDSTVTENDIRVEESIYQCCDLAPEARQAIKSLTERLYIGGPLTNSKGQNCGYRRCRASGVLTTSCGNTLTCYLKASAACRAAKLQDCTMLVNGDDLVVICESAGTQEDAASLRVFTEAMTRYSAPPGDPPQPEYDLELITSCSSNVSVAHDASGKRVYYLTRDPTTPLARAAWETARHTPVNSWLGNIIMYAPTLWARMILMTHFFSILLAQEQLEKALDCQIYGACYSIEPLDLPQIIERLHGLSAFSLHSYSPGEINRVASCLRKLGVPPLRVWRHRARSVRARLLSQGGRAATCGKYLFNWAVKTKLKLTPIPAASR
Design: species or system HCV BK strain
Procedure, shortened: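 His-tagged NS5B (BK strain, 47-aa C-terminal deletion, E. coli-expressed) at 0.5 μg/ml copied 5 μg/ml run-off RNA bearing the HCV 3′ UTR with 2 μM UTP plus [3H]UTP, 50 μM ATP/GTP, in pH 7.5 Tris with 5 mM MgCl2, 25 °C, 90 min. TCA-precipitated RNA was counted and IC50 calculated.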
For O=C(O)c1ccc2c(C3CCCCC3)c3n(c2c1)CCN(CC(=O)N1Cc2ccccc2C1)c1ccccc1-3 [Example 1-140, 13-cyclohexyl-5-[2-(1,3-dihydroisoindol-2-yl)-2-oxoethyl]-6,7-dihydro-5H-benzo[5,6][1,4]diazepino[7,1-a]indole-10-carboxylic acid monohydrochloride], the pIC50 was > 7.00. For O=C(O)c1ccc2c(C3CCCCC3)c3n(c2c1)CCN(CC(=O)N1CCC2CCCCC2C1)c1ccccc1-3 (stereo not shown) [Example 1-141, 13-cyclohexyl-5-[2-(octahydroisoquinolin-2-yl)-2-oxoethyl]-6,7-dihydro-5H-benzo[5,6][1,4]diazepino[7,1-a]indole-10-carboxylic acid monohydrochloride], the pIC50 was > 7.00. With O=C(O)c1ccc2c(C3CCCCC3)c3n(c2c1)CCN(CCN1CCc2ccccc2C1)c1ccccc1-3 [Example 1-142, 13-cyclohexyl-5-[2-(3,4-dihydro-1H-isoquinolin-2-yl)ethyl]-6,7-dihydro-5H-benzo[5,6][1,4]diazepino[7,1-a]indole-10-carboxylic acid dihydrochloride] the pIC50 was > 7.00. CC1CCCN(CCN2CCn3c(c(C4CCCCC4)c4ccc(C(=O)O)cc43)-c3ccccc32)C1 (stereo not shown) [Example 1-143, 13-cyclohexyl-5-[2-(3-methylpiperidin-1-yl)ethyl]-6,7-dihydro-5H-benzo[5,6][1,4]diazepino[7,1-a]indole-10-carboxylic acid dihydrochloride] was tested, and the pIC50 was > 7.00. In the case of O=C(O)c1ccc2c(C3CCCCC3)c3n(c2c1)CCN(CCN1CCCC2CCCCC21)c1ccccc1-3 (stereo not shown) [Example 1-144, 13-cyclohexyl-5-[2-(octahydroquinolin-1-yl)ethyl]-6,7-dihydro-5H-benzo[5,6][1,4]diazepino[7,1-a]indole-10-carboxylic acid dihydrochloride], the pIC50 was > 7.00. In the case of O=C(O)c1ccc2c(C3CCCCC3)c3n(c2c1)CCN(CCN1Cc2ccccc2C1)c1ccccc1-3 [Example 1-145, 13-cyclohexyl-5-[2-(1,3-dihydroisoindol-2-yl)ethyl]-6,7-dihydro-5H-benzo[5,6][1,4]diazepino[7,1-a]indole-10-carboxylic acid dihydrochloride], the pIC50 was > 7.00. With O=C(O)c1ccc2c(C3CCCCC3)c3n(c2c1)CCN(CCN1CCC2CCCCC2C1)c1ccccc1-3 (stereo not shown) [Example 1-146, 13-cyclohexyl-5-[2-(octahydroisoquinolin-2-yl)ethyl]-6,7-dihydro-5H-benzo[5,6][1,4]diazepino[7,1-a]indole-10-carboxylic acid dihydrochloride] the pIC50 was > 7.00. In the case of CN(C)CCCN1CCn2c(c(C3CCCCC3)c3ccc(C(=O)O)cc32)-c2ccccc21 [Example 1-148, 13-cyclohexyl-5-(3-dimethylaminopropyl)-6,7-dihydro-5H-benzo[5,6][1,4]diazepino[7,1-a]indole-10-carboxylic acid dihydrochloride], the pIC50 was > 7.00. In the case of O=C(O)c1ccc2c(C3CCCCC3)c3n(c2c1)CCN(CCN1CCCCC1)c1c(F)cccc1-3 [Example 1-149, 13-cyclohexyl-4-fluoro-5-[2-(piperidin-1-yl)ethyl]-6,7-dihydro-5H-benzo[5,6][1,4]diazepino[7,1-a]indole-10-carboxylic acid dihydrochloride], the pIC50 was > 7.00. For CC(C)C1CCN(CCN2CCn3c(c(C4CCCCC4)c4ccc(C(=O)O)cc43)-c3ccccc32)CC1 [Example 1-150, 13-cyclohexyl-5-[2-(4-isopropylpiperidin-1-yl)ethyl]-6,7-dihydro-5H-benzo[5,6][1,4]diazepino[7,1-a]indole-10-carboxylic acid dihydrochloride], the pIC50 was > 7.00. In the case of COC1CCCN(CCN2CCn3c(c(C4CCCCC4)c4ccc(C(=O)O)cc43)-c3ccccc32)C1 (stereo not shown) [Example 1-151, 13-cyclohexyl-5-[2-(3-methoxypiperidin-1-yl)ethyl]-6,7-dihydro-5H-benzo[5,6][1,4]diazepino[7,1-a]indole-10-carboxylic acid dihydrochloride], the pIC50 was > 7.00. For CC(C)(C)OC(=O)N1CCCC(CN2CCn3c(c(C4CCCCC4)c4ccc(C(=O)O)cc43)-c3ccccc32)C1 (stereo not shown) [Example 1-152, 5-(1-tert-butoxycarbonylpiperidin-3-ylmethyl)-13-cyclohexyl-6,7-dihydro-5H-benzo[5,6][1,4]diazepino[7,1-a]indole-10-carboxylic acid], the pIC50 was > 7.00. For CCN1CCCC(CN2CCn3c(c(C4CCCCC4)c4ccc(C(=O)O)cc43)-c3ccccc32)C1 (stereo not shown) [Example 1-153, 13-cyclohexyl-5-(1-ethylpiperidin-3-ylmethyl)-6,7-dihydro-5H-benzo[5,6][1,4]diazepino[7,1-a]indole-10-carboxylic acid dihydrochloride], the pIC50 was > 7.00. O=C(O)c1ccc2c(C3CCCCC3)c3n(c2c1)CCN(CCN1CCCCCCC1)c1ccccc1-3 [Example 1-154, 5-[2-(azocan-1-yl)ethyl]-13-cyclohexyl-6,7-dihydro-5H-benzo[5,6][1,4]diazepino[7,1-a]indole-10-carboxylic acid] was tested, and the pIC50 was > 7.00. In the case of O=C(O)c1ccc2c(C3CCCCC3)c3n(c2c1)CCN(CCN1CCCCCCCC1)c1ccccc1-3 [Example 1-155, 5-[2-(azonan-1-yl)ethyl]-13-cyclohexyl-6,7-dihydro-5H-benzo[5,6][1,4]diazepino[7,1-a]indole-10-carboxylic acid], the pIC50 was > 7.00. With CC1CCCCN1CCN1CCn2c(c(C3CCCCC3)c3ccc(C(=O)O)cc32)-c2ccccc21 (stereo not shown) [Example 1-156, 13-cyclohexyl-5-[2-(2-methylpiperidin-1-yl)ethyl]-6,7-dihydro-5H-benzo[5,6][1,4]diazepino[7,1-a]indole-10-carboxylic acid] the pIC50 was > 7.00. O=C(O)c1ccc2c(C3CCCCC3)c3n(c2c1)CCN(CCC1CCN(C2CCCC2)CC1)c1ccccc1-3 [Example 1-157, 13-cyclohexyl-5-[2-(1-cyclopentylpiperidin-4-yl)ethyl]-6,7-dihydro-5H-benzo[5,6][1,4]diazepino[7,1-a]indole-10-carboxylic acid dihydrochloride] was tested, and the pIC50 was > 7.00. In the case of O=C(O)c1ccc2c(C3CCCCC3)c3n(c2c1)CCN(CC(=O)N1CCC(C(F)(F)F)CC1)c1ccccc1-3 [Example 1-158, 13-cyclohexyl-5-[2-oxo-2-(4-trifluoromethylpiperidin-1-yl)ethyl]-6,7-dihydro-5H-benzo[5,6][1,4]diazepino[7,1-a]indole-10-carboxylic acid monohydrochloride], the pIC50 was > 7.00. For O=C(O)c1ccc2c(C3CCCCC3)c3n(c2c1)CCN(CCN1CCCCC1)c1cc(C(F)(F)F)ccc1-3 [Example 1-159, 13-cyclohexyl-5-[2-(piperidin-1-yl)ethyl]-3-trifluoromethyl-6,7-dihydro-5H-benzo[5,6][1,4]diazepino[7,1-a]indole-10-carboxylic acid dihydrochloride], the pIC50 was > 7.00. CCN1CCN(CCN2CCn3c(c(C4CCCCC4)c4ccc(C(=O)O)cc43)-c3ccc(F)cc32)CC1 [Example 1-160, 13-cyclohexyl-5-[2-(4-ethylpiperazin-1-yl)ethyl]-3-fluoro-6,7-dihydro-5H-benzo[5,6][1,4]diazepino[7,1-a]indole-10-carboxylic acid trihydrochloride] was tested, and the pIC50 was > 7.00. In the case of CC(C)(C)OC(=O)N1CCCCC1CCN1CCn2c(c(C3CCCCC3)c3ccc(C(=O)O)cc32)-c2ccccc21 (stereo not shown) [Example 1-161, 5-[2-(1-tert-butoxycarbonylpiperidin-2-yl)ethyl]-13-cyclohexyl-6,7-dihydro-5H-benzo[5,6][1,4]diazepino[7,1-a]indole-10-carboxylic acid monohydrochloride], the pIC50 was > 7.00. For CCN1CCN(C(=O)CN2CCn3c(c(C4CCCCC4)c4ccc(C(=O)O)cc43)-c3ccc(F)cc32)CC1 [Example 1-162, 13-cyclohexyl-5-[2-(4-ethylpiperazin-1-yl)-2-oxoethyl]-3-fluoro-6,7-dihydro-5H-benzo[5,6][1,4]diazepino[7,1-a]indole-10-carboxylic acid dihydrochloride], the pIC50 was > 7.00. O=C(O)c1ccc2c(C3CCCCC3)c3n(c2c1)CCN(CCc1ccccn1)c1ccccc1-3 [Example 1-163, 13-cyclohexyl-5-[2-(pyridin-2-yl)ethyl]-6,7-dihydro-5H-benzo[5,6][1,4]diazepino[7,1-a]indole-10-carboxylic acid dihydrochloride] was tested, and the pIC50 was > 7.00. For COCCN1CCn2c(c(C3CCCCC3)c3ccc(C(=O)O)cc32)-c2ccccc21 [Example 1-164, 13-cyclohexyl-5-(2-methoxyethyl)-6,7-dihydro-5H-benzo[5,6][1,4]diazepino[7,1-a]indole-10-carboxylic acid monohydrochloride], the pIC50 was > 7.00. For O=C(O)c1ccc2c(C3CCCCC3)c3n(c2c1)CCN(CCC1CCCNC1)c1ccccc1-3 (stereo not shown) [Example 1-165, 13-cyclohexyl-5-[2-(piperidin-3-yl)ethyl]-6,7-dihydro-5H-benzo[5,6][1,4]diazepino[7,1-a]indole-10-carboxylic acid dihydrochloride], the pIC50 was > 7.00. With CCN1CCCC(CCN2CCn3c(c(C4CCCCC4)c4ccc(C(=O)O)cc43)-c3ccccc32)C1 (stereo not shown) [Example 1-166, 13-cyclohexyl-5-[2-(1-ethylpiperidin-3-yl)ethyl]-6,7-dihydro-5H-benzo[5,6][1,4]diazepino[7,1-a]indole-10-carboxylic acid dihydrochloride] the pIC50 was > 7.00. Compound CC(C)(C)OC(=O)N1CCCC(CCN2CCn3c(c(C4CCCCC4)c4ccc(C(=O)O)cc43)-c3ccccc32)C1 (stereo not shown) [Example 1-167, 5-[2-(1-tert-butoxycarbonylpiperidin-3-yl)ethyl]-13-cyclohexyl-6,7-dihydro-5H-benzo[5,6][1,4]diazepino[7,1-a]indole-10-carboxylic acid] has a pIC50 of 6.00 to 7.00. In the case of Cc1ccc2c(c1)N(CCN1CCCOCC1)CCn1c-2c(C2CCCCC2)c2ccc(C(=O)O)cc21 [Example 1-168, 13-cyclohexyl-3-methyl-5-[2-(1,4-oxazepan-4-yl)ethyl]-6,7-dihydro-5H-benzo[5,6][1,4]diazepino[7,1-a]indole-10-carboxylic acid], the pIC50 was > 7.00.
